In paper PMC7043877, “Synthesis and evaluation of a prodrug of 5-aminosalicylic acid for the treatment of ulcerative colitis” (Iranian Journal of Basic Medical Sciences, 2019):
Blank lines part the entries; values can stand above or below the molecule they belong to.

Key:
[1] = Pharmacokinetic study in rats after oral administration; assay type: in vivo, rat
Protocol: Twelve male Sprague-Dawley rats were randomly divided in two groups (n=6), the 5-ASA-ALA group and 5-ASA group. Rats were orally administered with a certain amount of 5-ASA-ALA (equivalent to 50 mg/kg of 5-ASA) and 5-ASA. At 0.25, 0.5, 1, 2, 4, 6 and 8 hr, blood samples were collected from the jugular vein and then centrifuged at 13000 g, 4 °C for 5 min to separate plasma. The plasma sample (0.1 ml) was mixed with methanol (0.4 ml), vortexed for 5 min and then centrifuged again. Finally, the supernatant was obtained, dried under nitrogen, dissolved in methanol and used for HPLC detection.

[2] = Stability study of 5-ASA-ALA in rat plasma and stomach, small intestine and colon contents (room temperature storage, freezing-thawing); assay type: in vitro ADME; conditions: all tissue samples at 0.4, 1.6 and 6.4 μg/ml, both storage conditions
Protocol: This study was tested at three concentration levels of 5-ASA-ALA to evaluate its in vitro stability in tissue samples and validate the HPLC method for 5-ASA-ALA analysis under different conditions. Briefly, five rats were anesthetized and sacrificed, and their abdomen was cut open through the middle. Their stomach contents, small intestine contents and colon contents were collected and mixed with hydrochloric acid buffer (pH=1.2) and phosphate buffered saline (PBS) (pH=6.8 and 7.4), respectively, and homogenized to 20% (w/v). Then 1.0 ml of 5-ASA-ALA solution (dissolved in corresponding buffers) was mixed with the same volume of rat plasma, freshly prepared stomach contents, small intestine contents and colon contents, respectively, with the final concentration of 0.4, 1.6 and 6.4 μg/ml. Samples were divided into two groups, stored at room temperature for 10 hr or went through the freezing-thawing cycles twice. At the end of the storage and the freezing-thawing cycle, samples were centrifuged at 13000 g for 10 min and mixed with methanol (0.4 ml), then the mixture was vortexed and centrifuged again. Finally, the supernatant was collected, concentrated with nitrogen, and dissolved in methanol for HPLC analysis ([15]). Each concentration level was tested five times and the RSD was calculated respectively.

[3] = Transport study across Caco-2 monolayers (Papp); assay type: in vitro ADME, human; conditions: human, Caco-2
Protocol: (§1) Caco-2 cells were grown in DEME medium containing 10% FBS, 100 unit/ml peniciline, 100 µg/ml streptomycine, 2 mM glutamine, 1% sodium pyruvate and 1% non-essential amino acids at 37 °C in a humidified atmosphere of 95% air and 5% CO2. Cells were seeded on polycarbonate membranes (Transwell, diameter 24 mm, pore size 0.4 μm, Corning Costar, NY, USA) at 1×10^5 cells/well in a 6-well plate ([16]). Propranolol was used as a positive control.
(§2) Eight days later, Caco-2 cells reached 100% confluence and then were cultured for 18 days more. The culture medium was discarded, and then the apical (AP) and basal (BL) chambers were washed for 3 times with PBS. The culture medium was then replaced with 1 ml of propranolol or 5-ASA-ALA solution ([…]) in the AP chamber. In the BL chamber, 2 ml of PBS was added instead of the culture medium. The plate was incubated at 37 °C in an atmosphere of 95% air and 5% CO2 ([17]). After 0, 2, 4, 6, and 8 hr of incubation, the concentration of propranolol and 5-ASA-ALA in the BL chamber was measured by HPLC method, and the apparent permeability coefficient (Papp) of drugs was calculated as follows: […]
(§3) where dQ/dt (μmol/s) is the transport rate, C0 (μmol/cm^3) is the initial concentration in the donor chamber, and A (cm^2) is the surface area of insert filter membrane. Experiments were performed in triplicate.

[4] = tested on: Caco-2 cells; experiment: Transport study across Caco-2 monolayers (Papp); assay type: in vitro ADME, human; conditions: compared with propranolol
Protocol: as §1, §2, §3

[5] = tested on: TNBS-induced colitis; experiment: TNBS-induced colitis: survival rate and body weight of mice; assay type: in vivo; conditions: ig equivalent to 100 mg/kg of 5-ASA, once daily 5 days
Protocol: (§4) Colitis induction was performed based on the previous study ([20]). After a 12 hr of fast, mice were anesthetized with pentobarbital sodium (40 mg/kg of body weight). TNBS solution (0.1 ml dissolved in 50% ethanol, 2.5%) was injected into the colon of mice (3.5-4 cm from the anus), and then mice were kept head downward for 30 sec to prevent drug leakage. Twenty-four hr after the injection of TNBS, mice were administrated once daily for five continuous days with different drugs. Briefly, mice in treatment groups were administrated with a given dose of drugs by gavage (0.1 ml, equivalent to 100 mg/kg of 5-ASA) ([21]). Besides, mice in the control group and the positive group received a same volume of normal saline, and a physical mixture of 5-ASA and alanine, respectively. Forty-eight mice were randomly divided into four groups (n=12): 1) control (intragastric-gavage (ig), normal saline, no colitis induced), 2) TNBS (ig, normal saline), 3) positive (ig, 100 mg/kg 5-ASA+56 mg/kg alanine, dissolved in normal saline), 4) 5-ASA-ALA (ig, 156 mg/kg, dissolved in normal saline).
From day 0 of colitis induction, the body weight of each mouse and the death of each group were recorded daily. Finally, the degree of TNBS-induced colitis in mice of each group was evaluated based on the curves of weight changes and the final survival rate of mice for each group.

[6] = tested on: GSH, MDA, GSH-Px and SOD in colonic tissues; experiment: TNBS-induced colitis: levels of GSH, MDA, GSH-Px and SOD in colonic tissues; assay type: in vivo, mice; conditions: P<0.01
Protocol: as §4
Clean and dried colonic tissues were homogenized in ice-cold normal saline, the resulting homogenate (10%, w/v) was centrifuged at 4 °C, 13000 g for 15 min. The obtained supernatant was diluted with normal saline to 1% (w/v), and the protein levels in the supernatant were measured by a BCA protein assay kit. The levels of GSH and MDA, and the activity of GSH-Px and SOD in the colonic tissues were measured by assay kits according to the provider’s instructions.

[7] = tested on: TNBS-induced colitis; experiment: TNBS-induced colitis: colonic damage score (CDS) and colon index; assay type: in vivo, mice; conditions: vs positive control, P<0.05
Protocol: Colitis induction was performed based on the previous study ([20]). After a 12 hr of fast, mice were anesthetized with pentobarbital sodium (40 mg/kg of body weight). TNBS solution (0.1 ml dissolved in 50% ethanol, 2.5%) was injected into the colon of mice (3.5-4 cm from the anus), and then mice were kept head downward for 30 sec to prevent drug leakage. Twenty-four hr after the injection of TNBS, mice were administrated once daily for five continuous days with different drugs. Briefly, mice in treatment groups were administrated with a given dose of drugs by gavage (0.1 ml, equivalent to 100 mg/kg of 5-ASA) ([21]). […]
All mice were sacrificed on the 5th day of the experiment, their colonic tissues were excised, cut longitudinally, washed carefully with normal saline, and observed with a magnifying glass. The colonic damage score (CDS) was evaluated according to following scoring criteria: 0, no ulcer and colitis; 1, local hyperemia without ulcer; 2, ulcers without local hyperemia; 3, only one ulcerative and inflammatory lesion; 4, more than one ulcerative and inflammatory lesions; 5, more than 2 cm of continuous ulcer areas ([24]).
The entire colon samples were dried with filter papers, the length and weight of the samples were measured and recorded, respectively, in order to calculate the colon index of mice as the following formula: […]

[8] = tested on: MPO activity in colonic tissues; experiment: TNBS-induced colitis: MPO activity in colonic tissues; assay type: in vivo, mice; conditions: P<0.01
Protocol: as §4
Colonic tissue samples were cleaned, dried and then suspended in HTAB solution (0.5%, pH=7.4), the final concentration of the tissue samples was 50 g/l. […] Finally, MPO activity in colonic tissues was detected by an assay kit according to the provider’s instructions.

[9] = In vitro incubation with colon contents of rats; assay type: in vitro ADME, rat
Protocol: Four g of colon contents of rats (n=6) were collected and mixed with 5-ASA-ALA solution (0.1 g/ml) in PBS (pH=7.4, 40 ml), the mixture was incubated under nitrogen atmosphere at 37 °C. At the time point of 0, 1, 2, 3, 4, 5, 6, 7, 8, 9 and 10 hr, the mixture (0.5 ml) was sampled and replaced with an equivalent volume of PBS. Samples were then centrifuged and filtered, the concentration of 5-ASA was detected by HPLC method. The experiment was conducted at seven concentration levels of 5-ASA-ALA (27.5, 50.0, 72.5, 105.0, 150.0, 200.0 and 305.0 μg/ml). The hydrolysis curve of each concentration was drawn, the linear regression was made to obtain regression equations, and the slope of each curve was regarded as the hydrolysis rate of 5-ASA-ALA.

[10] = tested on: TNBS-induced colitis; experiment: TNBS-induced colitis: disease activity index (DAI); assay type: in vivo, mice; conditions: compared with the positive control
Protocol: as §4
The disease activity index (DAI) of mice was scored and recorded daily from day 1 according to the scoring criteria (Table 1). […] The degree of fecal occult blood was evaluated by the ο-tolidine method ([22]), and scored based on the criteria reported by Kohn and kelly ([23]).

[11] = tested on: colonic microflora; experiment: In vivo incubation in the colon of rats (with or without clindamycin pretreatment); conditions: incubation in rat colon for 8 hr
Protocol: Rats were randomly divided into two groups (n=6), the clindamycin group and the control group. Clindamycin was used as an inhibitor of the colonic microflora. Rats were administered with a certain dose of clindamycin (25 mg/kg of body weight) and an equivalent volume of normal saline by gavage, twice daily for three days, respectively. After that, rats were anesthetized by diethyl ether, their abdomen was cut open, and then 5-ASA-ALA solution (2 mg, dissolved in 1 ml of PBS, pH=7.4) was injected into their colon, finally, their colon was tied at both ends and their abdomen was sutured immediately ([18], [19]). Eight hr later, animals were sacrificed, the colon contents of rats were collected and homogenized in PBS (pH=7.4, 40 ml). The homogenate was then centrifuged, and the supernatant was obtained and mixed with four times the volume of methanol, finally, samples were centrifuged, filtered and analyzed by HPLC. The percent of hydrolysis of 5-ASA-ALA was calculated as follows: percent of hydrolysis %=(1-Wf/Wt)×100 where Wf is the free amount of 5-ASA in the colon contents and Wi is the initial amount of 5-ASA-ALA that administered to rats.

[12] = tested on: Caco-2 cells; conditions: Caco-2 cell monolayer, known value that justifies the positive control; no reference given; cited from earlier work
[13] = vs TNBS group, five days of treatment

Tmax ([1]; male, Sprague-Dawley, rat, oral administration, 50 mg/kg of 5-ASA, plasma): 30 min
Structure (SMILES): Nc1ccc(O)c(C(=O)O)c1 [5-ASA, 5-Aminosalicylic acid]

Structure (SMILES): CC(NC(=O)c1cc(N)ccc1O)C(=O)O (centres unmarked) [5-ASA-ALA, 5-Aminosalicylic acid-alanine]
RSDs in all tissue samples [2]: < 4%
Papp at 8 hr, 200 μmol/l ([3]; apical to basal direction, at 200 μmol/l): 26.3 nm/s
Papp at 8 hr, 400 μmol/l ([3]; apical to basal direction, at 400 μmol/l): 17.3 nm/s
absorption in the Caco-2 monolayer [4]: significantly less than the propranolol
body weight ([5]; alleviated from the third day): slight weight loss in the first two days
survival rate ([5]; positive control vs 5-ASA-ALA group, n=12): no significant difference
GSH level in colonic tissues [6, 13]: significantly higher
GSH-Px activity in colonic tissues [6, 13]: higher activities
MDA level in colonic tissues [6, 13]: significantly lower
SOD activity in colonic tissues [6, 13]: higher activities
reducing the MDA level in the colon ([6]; vs positive control): significantly greater effect
plasma concentration ([1]; oral, equivalent to 50 mg/kg of 5-ASA, 0-8 hr): not detected
CDS [7]: significantly greater effect than the positive control
MPO activity in colonic tissues ([8]; vs TNBS group): significantly reduced
MPO activity in colonic tissues ([8]; vs positive control): obviously more effective than the positive control
concentration of 5-ASA-ALA above which the hydrolysis rate did not increase anymore (zero-order) ([9]; colon contents of rats, Figure 3): above 200 µg/ml
5-ASA released from 5-ASA-ALA ([9]; colon contents, PBS pH 7.4, nitrogen, 37 °C, 0-10 hr): gradually released
DAI [10]: more effective than the positive control
percent of hydrolysis ([11]; clindamycin group (25 mg/kg twice daily, three days), P<0.01): 5.26%
percent of hydrolysis ([11]; control group (normal saline)): 89.14%

Papp at 8 hr, 100 μmol/l ([3]; detected in this study, at 100 μmol/l): 248 nm/s
Structure (SMILES): CC(C)NCC(O)COc1cccc2ccccc12 (centres unmarked) [Propranolol, reference compound]
Papp [12]: 275 nm/s
